Several values for one entry are separate records, joined by “and”; a condition that tells them apart may be missing. Equal entries are not always repeated.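 A five-concentration, 48-hour dose response in 96-well plates underlies each endpoint, interpolated linearly between surrounding concentrations. At the GI50, growth is halved. TGI denotes the concentration required for complete inhibition of growth.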
Tests used:
Assay in all cases: DTP human tumour cell line panel, 48 h
SF-268 CNS = tested on: SF-268 CNS
SNB-75 CNS = tested on: SNB-75 CNS
HL-60(TB) leukemia = tested on: HL-60(TB) leukemia
NCI-H226 lung = tested on: NCI-H226 lung
NCI-H522 lung = tested on: NCI-H522 lung
CAKI-1 renal = tested on: CAKI-1 renal
HOP-62 NSCLC = tested on: HOP-62 NSCLC
SNB-19 CNS = tested on: SNB-19 CNS
HCC-2998 colon = tested on: HCC-2998 colon
SK-MEL-2 melanoma = tested on: SK-MEL-2 melanoma

| SMILES | GI50 (SF-268 CNS) | TGI (SF-268 CNS) | GI50 (SNB-75 CNS) | TGI (SNB-75 CNS) | GI50 (HL-60(TB) leukemia) | TGI (HL-60(TB) leukemia) | GI50 (NCI-H226 lung) [µM] | TGI (NCI-H226 lung) | GI50 (NCI-H522 lung) | TGI (NCI-H522 lung) | GI50 (CAKI-1 renal) | TGI (CAKI-1 renal) | GI50 (HOP-62 NSCLC) | TGI (HOP-62 NSCLC) | GI50 (SNB-19 CNS) | TGI (SNB-19 CNS) | GI50 (HCC-2998 colon) | TGI (HCC-2998 colon) | GI50 (SK-MEL-2 melanoma) | TGI (SK-MEL-2 melanoma) |
| --- | --- | --- | --- | --- | --- | --- | --- | --- | --- | --- | --- | --- | --- | --- | --- | --- | --- | --- | --- | --- |
| Fc1ccc2[nH]cc(-c3nonc3-c3c[nH]c4ccc(Br)cc34)c2c1 | 3.01 µM | 12.4 µM | 1.89 µM | 16.9 µM | 2.94 µM | 11.6 µM | 2.13 | 5.3 µM | 1.85 µM | 4.47 µM | 2.89 µM | 13.8 µM | 1.89 µM | 5.07 µM | 2.25 µM | 5.69 µM | 1.89 µM | 3.83 µM | 2.23 µM | 5.13 µM |
| Nc1ccc(C2=NN(c3ccccc3)C(c3ccc(Cl)cc3)C2)cc1 (stereo not drawn) | 4.22 µM | 19.8 µM | 3.76 µM | 16.2 µM | 3.71 µM | 22.8 µM | 2.13 | 6.38 µM | 1.51 µM | 3.27 µM | 3.21 µM | 14 µM | 2.01 µM | 5.05 µM | 2.9 µM | 14.1 µM | 1.86 µM | 3.29 µM |  |  |
| Cc1cnc(NC(=O)Nc2cc(Br)c(C)cc2OC[C@@H]2CNCCO2)cn1 | 3.66 µM and 2.33 µM | > 10 µM and 13.6 µM | 4.61 µM and 2.95 µM | > 10 µM and 15.8 µM | 0.388 µM and 0.545 µM | 5.46 µM and 2.43 µM | 5.84 | > 10 µM and 20.8 µM | 2.1 µM and 2.46 µM | > 10 µM and 11.5 µM | 1.74 µM and 0.852 µM | > 10 µM and 6.16 µM | 0.539 µM and 1.65 µM | > 10 µM and 14.2 µM | 2.52 µM and 1.42 µM | > 10 µM and 14.3 µM | 0.468 µM and 0.493 µM | > 10 µM and 5.28 µM | 0.55 µM and 0.653 µM | > 10 µM and 13 µM |
| Cc1ccc(S(=O)(=O)N/N=C(\c2nc3ccc(Cl)cc3[nH]c2=O)C(O)c2cccc([N+](=O)[O-])c2)cc1 (stereo not drawn) |  | > 100 µM |  | > 100 µM |  | > 100 µM |  | > 100 µM |  | > 100 µM |  | > 100 µM |  | > 100 µM |  | > 100 µM |  | > 100 µM |  | > 100 µM |
| COc1cc(/C=C2\C(=O)Nc3cc(C)c(O)cc32)cc(OC)c1OC | 5.34 µM | 36 µM | 3.03 µM | > 30 µM | 1.74 µM | 5.84 µM | 15.6 | 46.5 µM | 2.59 µM | 12.1 µM | 2.98 µM | 9.66 µM | 11.7 µM | 37.4 µM | 10.6 µM | 34.3 µM | 5.18 µM | 17.5 µM | 2.97 µM | 14.5 µM |
| CCOC(=O)N1CCN(c2nc(Nc3cc(C)[nH]n3)c3ccccc3n2)CC1 | 3.54 µM | 39 µM | 0.727 µM | 5.66 µM | 12 µM | 34.1 µM | 1.58 | 10.8 µM | 2.82 µM | 30.7 µM | 0.97 µM | 17.8 µM | 2.81 µM | > 100 µM | 10.3 µM | > 100 µM | 11.7 µM | 48.7 µM | 0.737 µM | 55.5 µM |
| OCc1ccc(-c2ccc(-c3ccc(CO)o3)[se]2)o1 | > 100 µM | > 100 µM | 37 µM | > 100 µM | 39.7 µM | > 100 µM | 0.3 | 1.55 µM | 53.4 µM | > 100 µM | > 100 µM | > 100 µM | > 80.4 µM | > 100 µM | > 100 µM | > 100 µM | > 100 µM | > 100 µM | > 84.5 µM | > 100 µM |

Reference: PubChem BioAssay (NCI)
